From patent EP2440179B1, “CHITOSAN OLIGOSACCHARIDE-BASED COMPOSITIONS” (Teslenko, Alexander, priority 2009, dated 2010)

Legend:
Walker-Carciosarcom [1] = experiment: Photodynamic therapy in tumour-bearing rats: histological/cytological examination of tumour necrosis; format: in vivo, Ratten
Description: Der Nachweis der therapeutischen Wirkung von COS-ALA-Addukten erfolgte an insgesamt 60 Ratten mit einem Walker-Carciosarcom (30 Verum- und 30 Kontrolltiere). Die Tumore waren den Tieren implantiert worden, die photodynamische Therapie mit COS-ALA wurde durchgeführt, wenn die Tumoren eine Große von 1 cm^3 erreicht hatten.
Zur Behandlung diente eine Lampe "[sequence]" (Galdena AG, Frankfurt/M.) mit monochromatischem Licht der Wellenlänge λ = 634 nm. Die Bestrahlungsdosis betrug 37 J/cm^2, die mittlere Energie 8,5 W. Die behandelten Gruppen bestanden aus jeweils 6 Tieren, die nach 1, 2, 3, 5, 6 und 24 Stunden sowie 2 Wochen untersucht wurden. Dazu wurden die Tiere getötet, die Tumore exstirpiert und deren Gewicht und Größe gemessen. Für histologische Untersuchungen wurde Gewebe in 10 %iger Formalinlösung fixiert.

Walker-Carciosarcom [2] = experiment: Photodynamic therapy in tumour-bearing rats: malondialdehyde in tumour homogenate (2-thiobarbituric acid); format: in vivo, Ratten; conditions: marker of oxidative stress
Description: Der Nachweis der therapeutischen Wirkung von COS-ALA-Addukten erfolgte an insgesamt 60 Ratten mit einem Walker-Carciosarcom (30 Verum- und 30 Kontrolltiere). Die Tumore […] worden, die photodynamische Therapie mit COS-ALA wurde durchgeführt, wenn die Tumoren eine Große von 1 cm^3 erreicht hatten. Zur Behandlung […], Frankfurt/M.) mit monochromatischem […] λ = 634 nm. Die Bestrahlungsdosis betrug 37 J/cm^2, die […]. […] Dazu wurden die Tiere getötet, die Tumore […] und deren Gewicht und […] histologische Untersuchungen wurde Gewebe in 10 %iger Formalinlösung fixiert. Zur Bestimung des oxidativen Stress in den Tumorhomogenisaten diente der Gehalt an Malondialdehyd, der mit Hilfe der 2-Thiobarbitursäure bestimmt wurde.

[3] = format: in vitro ADME, Schwein; conditions: mean of 4 treated pig skins, after 2 Stunden Applikation
Procedure: Schweineohren wurden ohne Hautverletzungen sofort nach der Schlachtung aus einem Schlachthof abgeholt. Die Ohren wurden gründlich mit milder Seife abgewaschen. Unmittelbar danach wurde die subkutane Fettschicht mit dem Skalpell abgetrennt. Die Haut wurde in einem Container bei -20°C für weitere Untersuchungen aufbewahrt. Die Trennung der Epidermis von der Dermis erfolgte vorsichtig nach Erwärmung bei 60°C (1 Minute).
Die Eindringtiefe von COS-Salicylat wurde im Rahmen eines Schälverfahrens an einer Modellhaut bestimmt. Die 10%-ige COS-Salicylat-Lösung wurde auf die Hautoberfläche der Ohren aufgetragen und etwa 1 bis 2 Minuten in die Haut einmassiert. Währenddessen wurden die Ohren bei 35 °C temperiert.
Für die Schälung wurden 15 Tesafilmstreifen (Typ Tesa® Office, Beiersdorf, DE) auf eine Größe von 1,5 cm * 1,5 cm geschnitten und ausgewogen. Die auf dem Schweineohr ausgewählten Untersuchungsfelder von 2 cm * 2 cm wurden nacheinander mit den vorbereiteten Tesafilm-Streifen beklebt und danach abgezogen.
Die Streifen wurden mit Acetonitril bei 60°C im Laufe von 60 Minuten extrahiert. Die Lösungen wurden durch 0,5 µm-Membranen filtriert und mit Hilfe von HPLC analysiert.
Das Shimadzu LC-20A HPLC-System bestand aus einer Spherisorb S5 ODS2-Säule (Waters Co) und UV-Detektor. Mobile Phase war Wasser-Methanol-Acetonitril-Essigsaure. Tabelle 2: Mittelwerte der Wiederfindung aus 4 behandelten Schweinehäuten des COS-Salicylat (aus Beispiel 1) und Salicylsäure in einzelnen Hautschichten nach 2 Stunden Applikation.
Der Gehalt von COS-Salicylat in Epidermis und Dermis wurde mit Hilfe einer Franz-Zelle bestimmt.

| Compound | Nekrose in der Mitte des Tumorgewebes zu sehen nach (Walker-Carciosarcom [1]; time until necrosis is seen) [Stunden] | Nekrose verbreitet sich auf das ganze Tumorgewebe nach (Walker-Carciosarcom [1]; time until necrosis of the whole tumour) [Wochen] | Malondialdehyd (Walker-Carciosarcom [2]; Zeit nach PDT 1 h) | Malondialdehyd (Walker-Carciosarcom [2]; Zeit nach PDT 2 h) | Malondialdehyd (Walker-Carciosarcom [2]; Zeit nach PDT 3 h) | Malondialdehyd (Walker-Carciosarcom [2]; Zeit nach PDT 5 h) | Malondialdehyd (Walker-Carciosarcom [2]; Zeit nach PDT 6 h) | Malondialdehyd (Walker-Carciosarcom [2]; Zeit nach PDT 24 h) | Wiederfindung, Verteilung in Dermis [3] | Wiederfindung, Verteilung in Epidermis [3] | Wiederfindung, Verteilung in Hornschicht [3] |
| --- | --- | --- | --- | --- | --- | --- | --- | --- | --- | --- | --- |
| 5-Aminolävulinsäure [ALA] | 72 | 2 | 0,25 nmol/mL | 0,42 nmol/mL | 0,47 nmol/mL | 0,55 nmol/mL | 0,61 nmol/mL | 0,75 nmol/mL | – | – | – |
| O=C(O)c1ccccc1O [Salicylsäure] | – | – | – | – | – | – | – | – | 1,0 ± 0,15 µg/cm^2 | 2,1 ± 0,2 µg/cm^2 | 5,3 ± 0,4 µg/cm^2 |
